Earlier results on one molecule are cited in US20240424165A1, “NEW COATING OF IMPLANTS” (Universität Münster, priority 2021, published 2024).

The term MIC denotes the lowest concentration that inhibits growth of the organism.

In brackets after ≈: the same amount, converted by molar mass.

This series concerns S. aureus.

Take `CO[C@H]1/C=C/O[C@@]2(C)Oc3c(C)c(O)c4c(O)c(c(/C=N/N5CCN(C)CC5)c(O)c4c3C2=O)NC(=O)/C(C)=C\C=C\[C@H](C)[C@H](O)[C@@H](C)[C@@H](O)[C@@H](C)[C@H](OC(C)=O)[C@@H]1C` [rifampin]: the minimal inhibitory concentration (MIC) was 0.06 µg/mL (≈ 0.0729 µM).
